# Experimental data taken from the supplement of paper PMC11061612.
# Tests used:
# Experiment in all cases: combination Emax (second highest fraction inhibited in the dose matrix, 72 h); higher = more inhibition; extreme values may be limits of the assay
# BPH-1 (Non-Cancerous) = test system: BPH-1 (Non-Cancerous)
# Summary of the method: (§1)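 After 24 hours at 37°C and 5% CO2 in 1536-well plates, cells in DMEM/F12 or RPMI plus 10% FBS received two-drug dose matrices for 72 hours. Viability came from CellTiter-Glo 2.0 luminescence and was scaled as inhibition, anchored at 0 by vehicle wells and at 1 by blank wells. Combination Emax is taken as the second-highest inhibition in the matrix, and Bliss excess as the observed combination effect less EA + EB − EA·EB, with EA and EB the single-agent effects.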
# MPP-89 (Mesothelioma) = test system: MPP-89 (Mesothelioma)
# Summary of the method: as §1
# [1] = test system: SNU-16 (Gastric Carcinoma)
# Summary of the method: as §1
# LOXIMVI (Melanoma) = test system: LOXIMVI (Melanoma)
# Summary of the method: as §1
# [2] = test system: LNZTA3WT4 (Low Grade Glioma)
# Summary of the method: as §1
# [3] = test system: OVCAR-5 (Ovarian Carcinoma)
# Summary of the method: as §1
# [4] = test system: OV-56 (Ovarian Carcinoma)
# Summary of the method: as §1
# BE2-M17 (Neuroblastoma) = test system: BE2-M17 (Neuroblastoma)
# Summary of the method: as §1
# [5] = test system: CAL-33 (Oral Cavity Carcinoma)
# Summary of the method: as §1
# [6] = test system: HeLa (Cervical Carcinoma)
# Summary of the method: as §1
# [7] = test system: FTC-133 (Thyroid Gland Carcinoma)
# Summary of the method: as §1
# [8] = test system: Detroit562 (Head and Neck Carcinoma)
# Summary of the method: as §1
# NCI-H2722 (Mesothelioma) = test system: NCI-H2722 (Mesothelioma)
# Summary of the method: as §1
# [9] = test system: SW1573 (Lung Adenocarcinoma)
# Summary of the method: as §1
# [10] = test system: NCI-H524 (Small Cell Lung Carcinoma)
# Summary of the method: as §1
# [11] = test system: NCI-H1568 (Lung Adenocarcinoma)
# Summary of the method: as §1
# [12] = test system: HuH-7 (Hepatocellular Carcinoma)
# Summary of the method: as §1
# [13] = test system: HH (T-Cell Non-Hodgkin's Lymphoma)
# Summary of the method: as §1
# [14] = test system: SNU-449 (Hepatocellular Carcinoma)
# Summary of the method: as §1
SMILES,combination Emax (BPH-1 (Non-Cancerous)),combination Emax (MPP-89 (Mesothelioma)),combination Emax [1],combination Emax (LOXIMVI (Melanoma)),combination Emax [2],combination Emax [3],combination Emax [4],combination Emax (BE2-M17 (Neuroblastoma)),combination Emax [5],combination Emax [6],combination Emax [7],combination Emax [8],combination Emax (NCI-H2722 (Mesothelioma)),combination Emax [9],combination Emax [10],combination Emax [11],combination Emax [12],combination Emax [13],combination Emax [14]
"CN(C)CCCOc1ccc(-c2ccc3ncc4c(c3c2)n(C2CCOCC2)c(=O)n4C)cn1 [AZD0156] + C[C@@H]1COCCN1C2=NC(=NC(=C2)C3(CC3)[S@](=N)(=O)C)C4=C5C=CNC5=NC=C4 [AZD6738] (first compound max 1 µM, 7x7, partner max 10 µM)",0.427,0.63,0.982,0.908,0.778,0.756,0.741,0.928,0.782,0.679,0.666,0.88,0.248,0.196,0.858,0.49,0.325,0.427,0.176
"C=CCn1c(=O)c2cnc(Nc3ccc(N4CCN(C)CC4)cc3)nc2n1-c1cccc(C(C)(C)O)n1 [AZD1775] + C[C@@H]1COCCN1C2=NC(=NC(=C2)C3(CC3)[S@](=N)(=O)C)C4=C5C=CNC5=NC=C4 [AZD6738] (first compound max 1 µM, partner max 10 µM)",0.588,0.737,0.989,0.883,0.9,0.782,0.849,0.957,0.935,0.948,0.766,0.902,0.403,0.476,0.97,0.487,0.487,0.583,0.409
"C=CCn1c(=O)c2cnc(Nc3ccc(N4CCN(C)CC4)cc3)nc2n1-c1cccc(C(C)(C)O)n1 [AZD1775] + O=C(c1cc(Cc2n[nH]c(=O)c3ccccc23)ccc1F)N1CCN(C(=O)C2CC2)CC1 [Olaparib] (first compound max 1 µM, partner max 10 µM)",0.488,0.508,0.931,0.638,0.806,0.447,0.261,0.462,0.721,0.694,0.602,0.669,0.346,0.317,0.789,0.422,0.304,0.443,0.22
"CCN(CCO)CCCOc1ccc2c(Nc3cc(CC(=O)Nc4cccc(F)c4)[nH]n3)ncnc2c1 [AZD2811] + C=CCn1c(=O)c2cnc(Nc3ccc(N4CCN(C)CC4)cc3)nc2n1-c1cccc(C(C)(C)O)n1 [AZD1775] (first compound max 1 µM, partner max 1 µM)",0.679,0.511,0.916,0.959,0.792,0.273,0.139,0.618,0.877,0.449,0.685,0.828,0.278,0.283,0.976,0.429,0.132,0.293,0.249
"CCN(CCO)CCCOc1ccc2c(Nc3cc(CC(=O)Nc4cccc(F)c4)[nH]n3)ncnc2c1 [AZD2811] + C[C@@H]1COCCN1C2=NC(=NC(=C2)C3(CC3)[S@](=N)(=O)C)C4=C5C=CNC5=NC=C4 [AZD6738] (first compound max 1 µM, 7x7, partner max 10 µM)",0.4,0.646,0.974,0.746,0.754,0.698,0.609,0.741,0.936,0.567,0.688,0.913,0.326,0.266,1,0.397,0.293,0.179,0.176
"CCN(CCO)CCCOc1ccc2c(Nc3cc(CC(=O)Nc4cccc(F)c4)[nH]n3)ncnc2c1 [AZD2811] + O=C(c1cc(Cc2n[nH]c(=O)c3ccccc23)ccc1F)N1CCN(C(=O)C2CC2)CC1 [Olaparib] (first compound max 1 µM, 7x7, partner max 10 µM)",0.566,0.189,0.705,0.336,0.223,0.184,0.179,0.354,0.732,0.293,0.223,0.702,0.204,0.221,0.945,0.164,0.174,0.0537,0.205
"C[C@@H]1COCCN1c1cc(C2([S@](C)(=N)=O)CC2)nc(-c2ccnc3[nH]ccc23)n1 [AZD6738] + O=C(c1cc(Cc2n[nH]c(=O)c3ccccc23)ccc1F)N1CCN(C(=O)C2CC2)CC1 [Olaparib] (first compound max 10 µM, 7x7, partner max 10 µM)",0.51,0.619,0.956,0.978,0.778,0.515,0.69,0.74,0.763,0.713,0.672,0.862,0.292,0.217,0.746,0.416,0.357,0.209,0.234
"COc1cccc2c1C(=O)c1c(O)c3c(c(O)c1C2=O)C[C@@](O)(C(=O)CO)C[C@@H]3O[C@H]1C[C@H](N)[C@H](O)[C@H](C)O1 [Doxorubicin] + Cc1cc2ncnn2cc1Nc1ncc2c(n1)n(C1CCOCC1)c(=O)n2C [AZD7648] (first compound max 1 µM, 7x7, partner max 10 µM)",0.951,0.734,0.97,0.952,0.647,0.587,0.711,0.862,0.873,0.499,0.92,0.681,0.823,0.533,0.693,0.197,0.23,0.297,0.173
"COc1cccc(OCCCN)c1-c1cc(Nc2cnc(C#N)cn2)n[nH]1 [Prexasertib] + C=CCn1c(=O)c2cnc(Nc3ccc(N4CCN(C)CC4)cc3)nc2n1-c1cccc(C(C)(C)O)n1 [AZD1775] (first compound max 1 µM, partner max 1 µM)",0.809,0.826,1,0.859,0.91,0.838,0.921,0.998,0.916,0.91,0.858,0.949,0.308,0.582,1,0.563,0.438,0.742,0.439
"COc1cccc(OCCCN)c1-c1cc(Nc2cnc(C#N)cn2)n[nH]1 [Prexasertib] + CN(C)CCCOc1ccc(-c2ccc3ncc4c(c3c2)n(C2CCOCC2)c(=O)n4C)cn1 [AZD0156] (first compound max 1 µM, 7x7, partner max 1 µM)",0.235,0.724,1,0.862,0.885,0.838,0.895,0.983,0.807,0.859,0.805,0.922,0.193,0.201,0.97,0.538,0.347,0.703,0.326
"COc1cccc(OCCCN)c1-c1cc(Nc2cnc(C#N)cn2)n[nH]1 [Prexasertib] + C[C@@H]1COCCN1C2=NC(=NC(=C2)C3(CC3)[S@](=N)(=O)C)C4=C5C=CNC5=NC=C4 [AZD6738] (first compound max 1 µM, 7x7, partner max 10 µM)",0.356,0.724,1,0.849,0.91,0.817,0.916,0.994,0.916,0.864,0.861,0.918,0.304,0.236,0.998,0.526,0.34,0.674,0.282
"COc1cccc(OCCCN)c1-c1cc(Nc2cnc(C#N)cn2)n[nH]1 [Prexasertib] + Cc1cc2ncnn2cc1Nc1ncc2c(n1)n(C1CCOCC1)c(=O)n2C [AZD7648] (first compound max 1 µM, 7x7, partner max 10 µM)",0.319,0.734,0.998,0.784,0.9,0.829,0.88,0.983,0.816,0.839,0.82,0.922,0.216,0.201,0.988,0.54,0.329,0.65,0.308
"COc1cccc(OCCCN)c1-c1cc(Nc2cnc(C#N)cn2)n[nH]1 [Prexasertib] + O=C(c1cc(Cc2n[nH]c(=O)c3ccccc23)ccc1F)N1CCN(C(=O)C2CC2)CC1 [Olaparib] (first compound max 1 µM, 7x7, partner max 10 µM)",0.497,0.714,1,0.788,0.885,0.693,0.89,0.958,0.833,0.773,0.915,0.922,0.234,0.241,0.929,0.481,0.3,0.542,0.234
"CCc1c2c(nc3ccc(O)cc13)-c1cc3c(c(=O)n1C2)COC(=O)[C@]3(O)CC [SN-38] + CN(C)CCCOc1ccc(-c2ccc3ncc4c(c3c2)n(C2CCOCC2)c(=O)n4C)cn1 [AZD0156] (first compound max 0.3 µM, 7x7, partner max 1 µM)",0.94,0.632,0.927,0.784,0.449,0.567,0.88,0.887,0.936,0.295,0.959,0.848,0.301,0.794,0.608,0.474,0.149,0.0821,0.196
